The subject of this assay is Spleen B lymphocyte cells. In words: In vitro B lymphocyte proliferation induced by anti-IgM. In kind it is cell-based, BALB/c mice. Here is the method:
• 1) Chemical products and antibodies. A chemical bank of 3000 molecules (a varied subset) was acquired from ChemBridge, Inc. (San Diego, Calif.). Stocks of solutions of small molecules were prepared at a rate of 10 mM in DMSO (dimethylsulphoxide), except for C-13 (methyl 2-{5-[(3-benzyl-4-oxo-2-thioxo-1,3-thiazolidin-5-ylidene)methyl]-2-furyl}benzoate, ChemBridge ID No. 6197026) prepared in DMF (dimethylformamide). Unless specified otherwise, all the reagents were supplied by Sigma. Dinitrophenyl (DNP) hapten was acquired from Calbiochem. Sepharose GammaBind G and all the secondary antibodies were supplied by GE Health Amersham Biosciences. […] The binding of G4G11 with Syk was assessed by adding the 9E10 monoclonal antibody conjugated with HRP detecting the amino acid sequence EQKLISEEDLN of human c-myc protein located at the C-terminal end of the scFv fragment. To generate Syk mutants, targeted mutagenesis was used on GST:Syk 6-242 protein and the binding of G4G11 with the mutants was assessed in the presence of 5 μM of C-13. • 3) Cells, culture conditions and functional tests. […] The level of β-hexosaminidase released was measured 10 min later and the TNF-α titration was performed by means of a cytotoxicity test on L929 cells as described previously^10, 3 hours after stimulation. […]

The structures appear in SMILES notation.

As to `COC(=O)c1ccccc1-c1ccc(/C=C2/SC(=S)N(Cc3ccccc3)C2=O)o1` [Molecule C-13, methyl 2-{5-[(3-benzyl-4-oxo-2-thioxo-1,3-thiazolidin-5-ylidene)methyl]-2-furyl}benzoate], the “BCR-dependent B lymphocyte in vitro proliferation” value is “inhibited in a dose-dependent fashion”.

For the origin of these results see patent US9504676B2, “Molecules inhibiting a metabolic pathway involving the Syk protein tyrosine kinase and method for identifying said molecules” (CENTRE NATIONAL DE LA RECHERCHE SCIENTIFIQUE, priority 2008, dated 2016).
